Active and inactive are the calls of the source. The rule behind the calls is not given here.
Molecular target: fMet-Leu-Phe receptor (Homo sapiens) (UniProt P21462)
Experiment: human FPR1 ligand displacement potency – cell-based, flow cytometry, Ki from IC50, dose response (AID 724)
Conditions: FPR1-expressing cells, fluorescent ligand binding competition; for IC50: measured here: IC50 of ligand binding inhibition

Chain of fMet-Leu-Phe receptor (Homo sapiens) (P21462 whole entry, looked up): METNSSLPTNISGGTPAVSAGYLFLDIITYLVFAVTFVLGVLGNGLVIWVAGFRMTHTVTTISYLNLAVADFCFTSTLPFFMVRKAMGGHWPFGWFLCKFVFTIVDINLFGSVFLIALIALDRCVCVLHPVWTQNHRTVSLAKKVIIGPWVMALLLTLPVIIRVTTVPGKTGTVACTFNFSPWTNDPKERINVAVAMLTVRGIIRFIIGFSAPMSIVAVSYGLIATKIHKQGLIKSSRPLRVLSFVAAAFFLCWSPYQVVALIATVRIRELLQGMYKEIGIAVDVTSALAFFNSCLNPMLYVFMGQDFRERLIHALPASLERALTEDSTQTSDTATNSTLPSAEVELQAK

COc1ccc(C2C(C(=O)c3cccs3)=C(O)C(=O)N2CCCn2ccnc2)cc1 (stereo not given)
Ki: 4.7 µM | IC50: 7.1 µM

COc1ccc(C2/C(=C(\O)c3ccc(C)cc3)C(=O)C(=O)N2Cc2cccnc2)c(OC)c1 (stereo not given)
Ki: inactive | IC50: 59.7 µM

COc1ccc(C2C(C(=O)c3cccs3)=C(O)C(=O)N2CCN2CCOCC2)c(OC)c1 (stereo not given)
Ki: 2.9 µM | IC50: 4.4 µM

COCCN1C(=O)C(=O)/C(=C(/O)c2ccccc2)C1c1cc(OC)ccc1OC (stereo not given)
Ki: 1.8 µM | IC50: 2.8 µM

Cc1ccc(/C(O)=C2\C(=O)C(=O)N(Cc3cccnc3)C2c2ccc(Br)cc2)cc1 (stereo not given)
Ki: > 44.3 µM (inactive)

O=C(C1=C(O)C(=O)N(CCCn2ccnc2)C1c1cccnc1)c1cc2ccccc2o1 (stereo not given)
Ki: > 44.3 µM (inactive)

O=C1NC(c2ccc(Br)cc2)/C(=C(\O)c2ccc(Cl)cc2)C1=O (stereo not given)
Ki: > 44.3 µM (inactive)

COc1ccccc1-c1c(C(F)(F)F)oc2cc(OC(=O)c3ccco3)ccc2c1=O
IC50: 1.7 µM

COc1ccc(C2C(C(=O)c3ccco3)=C(O)C(=O)N2CCN2CCOCC2)c(OC)c1 (stereo not given)
Ki: 6.4 µM | IC50: 9.8 µM

CC(C)c1ccc(C2/C(=C(\O)c3ccccc3)C(=O)C(=O)N2Cc2cccnc2)cc1 (stereo not given)
Ki: inactive | IC50: 50.7 µM

COc1cc(C2C(C(C)=O)=C(O)C(=O)N2c2ccc(Br)cc2)ccc1O (stereo not given)
Ki: > 44.3 µM (inactive)

COc1ccc(-c2c(C(F)(F)F)oc3cc(OC(=O)c4ccco4)ccc3c2=O)cc1OC
IC50: 5 µM

COc1ccc(/C(O)=C2/C(=O)C(=O)N(CCc3c[nH]c4ccccc34)C2c2ccc(C(C)C)cc2)cc1 (stereo not given)
Ki: > 44.3 µM (inactive)

Cc1nc2c(-c3ccc(Cl)cc3)c(C(F)(F)F)[nH]n2c(=O)c1Cc1ccccc1
IC50: 3.8 µM

CCc1cc2c(=O)c(-c3nc4ccccc4n3C)c(C)oc2cc1OC(C)=O
IC50: 0.5 µM

COc1ccc(C2C(C(=O)c3ccco3)=C(O)C(=O)N2CCCN2CCOCC2)cc1OC (stereo not given)
Ki: > 44.3 µM (inactive)

COc1ccc(OC)c(C2/C(=C(\O)c3ccccc3)C(=O)C(=O)N2c2ccc(C)c(Cl)c2)c1 (stereo not given)
Ki: inactive | IC50: 25.7 µM

O=C(O)CCCN1C(=O)C(=O)/C(=C(/O)c2ccccc2)C1/C=C/c1ccccc1 (stereo not given)
Ki: > 44.3 µM (inactive)

O=C1C(=O)N(c2ccc(F)cc2)C(c2ccc(Br)cc2)/C1=C(/O)c1ccccc1 (stereo not given)
Ki: > 44.3 µM (inactive)

CCCCCCOc1cccc(N2C(=O)C(=O)/C(=C(\O)c3ccccc3)C2c2cccc(F)c2)c1 (stereo not given)
Ki: > 44.3 µM (inactive)

COc1cc(C2C(C(=O)c3cc4ccccc4o3)=C(O)C(=O)N2CCN(C)C)ccc1O (stereo not given)
Ki: > 44.3 µM (inactive)

COc1ccc(C2/C(=C(\O)c3ccccc3)C(=O)C(=O)N2c2cccc(Cl)c2)c(OC)c1 (stereo not given)
Ki: inactive | IC50: 47.5 µM

COc1ccc(OC)c(C2/C(=C(\O)c3ccccc3)C(=O)C(=O)N2c2cccnc2)c1 (stereo not given)
Ki: 6 µM | IC50: 9.2 µM

COCCCN1C(=O)C(=O)/C(=C(/O)c2ccccc2)C1c1ccc(C(C)C)cc1 (stereo not given)
Ki: inactive | IC50: 31.1 µM

O=C(C1=C(O)C(=O)N(CCCn2ccnc2)C1c1cccnc1)c1ccco1 (stereo not given)
Ki: > 44.3 µM (inactive)

COCCCN1C(=O)C(=O)/C(=C(/O)c2ccccc2)C1c1ccc(O)c(OC)c1 (stereo not given)
Ki: inactive | IC50: 50.5 µM

O=C(C1=C(O)C(=O)N(CCCN2CCOCC2)C1c1cccnc1)c1cc2ccccc2o1 (stereo not given)
Ki: > 44.3 µM (inactive)

O=C(Oc1ccc2c(=O)c(-c3ccccc3Cl)c(C(F)(F)F)oc2c1)c1cccs1
IC50: 1.7 µM

CC(=O)C1=C(O)C(=O)N(CCc2c(C)[nH]c3ccccc23)C1c1cccc(F)c1 (stereo not given)
Ki: inactive | IC50: 17.2 µM

COc1ccc(C2/C(=C(\O)c3ccccc3)C(=O)C(=O)N2CCCn2ccnc2)c(OC)c1 (stereo not given)
Ki: 3.4 µM | IC50: 5.2 µM

COc1ccc(-c2c(C(F)(F)F)oc3cc(OC(=O)c4cccnc4)ccc3c2=O)cc1OC
IC50: 13.6 µM

Cc1ccc(N2C(=O)C(=O)/C(=C(\O)c3ccccc3)C2c2cccc(F)c2)cc1Br (stereo not given)
Ki: > 44.3 µM (inactive)

COc1ccc(OC)c(C2/C(=C(\O)c3ccc(C)cc3)C(=O)C(=O)N2CCC(=O)O)c1 (stereo not given)
Ki: > 44.3 µM (inactive)

O=C(C1=C(O)C(=O)N(CCc2ccccc2)C1c1ccc(Cl)cc1)c1cccs1 (stereo not given)
Ki: 6.9 µM | IC50: 10.6 µM

CCCCCCN1C(=O)C(=O)/C(=C(\O)c2ccccc2)C1c1ccc(O)c(OC)c1 (stereo not given)
Ki: 4.7 µM | IC50: 7.2 µM

O=C1C(=O)N(CN2CCOCC2)C(c2ccc(Br)cc2)/C1=C(\O)c1ccccc1 (stereo not given)
Ki: > 44.3 µM (inactive)

COc1ccc(/C(O)=C2/C(=O)C(=O)NC2c2ccc(OC)cc2OC)cc1 (stereo not given)
Ki: > 44.3 µM (inactive)

COc1ccc(C2C(C(=O)c3cc4ccccc4o3)=C(O)C(=O)N2CCN(C)C)cc1OC (stereo not given)
Ki: > 44.3 µM (inactive)

N#Cc1c(N/C(=C\C(=O)c2ccccc2)C(=O)O)sc2c1CCC2
Ki: > 44.3 µM (inactive)

Cc1ccc(/C(O)=C2\C(=O)C(=O)N(c3nnc(C)s3)C2c2ccc(C(C)C)cc2)cc1 (stereo not given)
Ki: > 44.3 µM (inactive)
